This note sets out measurements from the SangsterLogP compilation.

Structures are written as SMILES.

The first series in a line: method code SF-AS, from PMID: 754638.
Details: not given
In general, logP refers to a log measure of how a compound divides between an organic and an aqueous phase. Higher therefore signals higher lipophilicity. For the compound `COc1cc(S(=O)(=O)CC(O)c2ccccc2)cc(OC)c1OC` (centres undefined), the logP stood at 1.65. `C=CCS(=O)(=O)c1cc(OC)c(OC)c(OC)c1`: the logP was found to be 1.34. `COc1cc(S(=O)(=O)CCC(C)C)cc(OC)c1OC`: the logP came to 2.12. For `COc1cc(S(=O)(=O)CCN2CCOCC2)cc(OC)c1OC`, the logP turned out to be 1.29.

As for `COc1cc(S(=O)(=O)CCO)cc(OC)c1OC`, the logP worked out at 0.18. In turn, `CCCS(=O)(=O)c1cc(OC)c(OC)c(OC)c1` had a logP of 1.56. The same measure, in the same setting: for `CCS(=O)(=O)c1cc(OC)c(OC)c(OC)c1` the value was 1.05.

Still in this series, the particulars now being: pH 7.3.
In general, logD refers to the decadic logarithm of the distribution of all forms, ionised or not, between an organic phase and buffer at a given pH. Lower therefore signals lower lipophilicity. As for `COc1cc(S(=O)(=O)CCN2CCCCC2)cc(OC)c1OC`, the logD turned out to be 1.6. Same read-out and setting: the value for `CCCCN(C)CCS(=O)(=O)c1cc(OC)c(OC)c(OC)c1` was 2.05.
